Laboratory results: patent US20160375057A1, “THERAPEUTIC COMPOSITIONS AND METHODS INVOLVING CELL-PERMEABLE IRON” (priority 2015, published 2016)
Where two headings read alike, the source gives them in different places.

Assays:
[1] = tested on: MA148 ovarian cancer cells; test: Synergy of doxorubicin and FAC, CCK-8 viability, Compusyn CI/DRI (Example 5, FIG. 5, Tables 3-4); type: cell-based, Human
Procedure: FIG. 5. […] (Chou et al., 2006, Pharmacol Rev 58:621-628).
Subsequently, they were treated with different concentrations of Doxorubicin in the presence or absence of FAC 200 uM. […] Five different combinations of FAC and Doxorubicin were used in this study. […] Values below the dotted line indicate synergy.

[2] = tested on: A2780 ovarian cancer cells; test: Synergy of carboplatin and FAC, CCK-8 IC50 isobologram (Example 3, FIG. 3); details: read-out: IC50 (50% cell viability); agent alone, 48-hour treatment, CCK-8, A2780
Procedure: In these experiments, varying concentrations of the two reagents are added to tumor cells in an array format. Cytotoxicity was determined by CCK8 assay after 24 hours.
A2780 ovarian cancer cells were seeded into 96-well plates. […] Cell viability was determined by CCK-8 kit after 48-hour treatment with the drugs. […] IC50 values are shown as individual data points.

[3] = tested on: Burkitt's B-lymphoma cells; details: 14 days, 2 cells/well-50 cells/well
Procedure: FIG. 13. […] Burkitt's B-lymphoma cells were treated with FAC at different concentrations. Treated cells grown for 14 days at different cell density (2 cells/well-50 cells/well).

[4] = tested on: MDA-MB-231-luc triple negative breast cancer cell line; details: 100 μM FAC alone without radiation, five days
Procedure: FIG. 12. […] Triple negative breast cancer cell line, MDA-MB-231-luc, was exposed to different doses of ionizing radiation (X-Ray) in the presence and absence of 100 μM FAC. Sets of cultures seeded at the same cell density were kept as a control for radiation-induced cell death.
500,000 highly metastatic human breast cancer cells (MDA-MB-231-luc, Caliper Life Sciences, PerkinElmer Inc., Hopkinton, Mass.) were seeded into six-well plates in RPMI-1640 medium (3.0 ml) supplemented with 10% fetal bovine serum and antibiotics. After four hours to allow cell attachment, sets of cultures were treated with 100 μM FAC. Equal volume of complete medium was added to control cultures. One of the plates was kept aside without any radiation. Other sets of cultures were exposed to ionizing radiation (X-ray) of varying doses. After radiation, cells were cultures for five days. Live cells were stained with Hoechest 33342 dye and photographed under UV light.

Burkitt's lymphoma cells = test: Lymphoma cell growth in vitro, FAC versus FC (FIG. 14); type: cell-based
Procedure: FIG. 14. […]. Burkitt's lymphoma cells were treated with either ferric ammonium citrate (FAC) or ferric citrate (FC). […]

HUVECs = details: FAC 200 μM for 24 hours, complete medium, eight hours recording
Procedure: HUVECs were plated in 60 mm plates and allowed to grow and attach for 24 hours. Subsequently, one plate was treated with FAC 200 μM for 24 hours. Control and treated cells were trypsinized and 50,000 live cells were plated in 8 well (8W10E) electric cell substrate impedance sensing plate (ECIS, Applied BioPhysics, Inc., Troy, N.Y.). Cell attachment and spreading was confirmed by measuring electrical impedance. After reaching stable values of impedance in ohms, a clear wound of 250 micrometer was generated by applying elevated electrical pulse to the defined electrode. Wounded area is clear of cells and confirmed by a decrease in impedance. Cell movement into the wounded areas was recorded for eight hours at 15 minute intervals. Cell migration into the wounded area increases impedance and was continually recorded over a period of eight hours (FIG. 10). Error bars represent standard deviation (SD).

[5] = tested on: human umbilical vein endothelial cells (HUVEC); details: 100 ng/ml VEGF-A
Procedure: Human umbilical vein endothelial cells (HUVECs; Neuromics, Edina, Minn.) and HUVECs immortalized with h-TERT (ATCC CRL-4053, ATCC, Manassas, Va.) were cultured in endothelial cell growth media EGM-2 (Lonza, Basel, Switzerland). Lewis Lung Carcinoma (LLC) cells (ATCC CRL-1642, ATCC, Manassas, Va.) were grown in RPMI 1640 medium supplemented with 10% FBS, 1% glutamine, 1% penicillin-streptomycin and 1% sodium pyruvate. Female C57BL/6 wild-type (WT) mice were used as recipients (bred at the University of Minnesota specific pathogen free environment animal facility). All animals were sex and aged matched (6-8 weeks). All experimental protocols were approved by the University of Minnesota Institutional Animal Care and Use Committee. VEGF-A165 was purchased from R & D Systems (Minneapolis, Minn.). GELTREX Low-growth factor basement membrane matrix (Thermo Fisher Scientific, Inc., Waltham Mass.) was used for in vitro tube formation assay.
HUVEC were plated in 0.2% gelatin coated 96-well plates and allowed to attach for 24 hours. Subsequently they were starved in EBM-2 with 2% serum overnight. […] Cell viability was determined by CCK-8 assay (Dojindo Molecular Technologies, Inc., Rockville, Md.). VEGF-A induced effect was calculated by subtracting negative control values from all experimental groups. Proliferation was then calculated as percentage of the positive control.

[6] = tested on: MA148 ovarian cancer cells
Procedure: CI, combination index. CI<1.0 indicates synergy. Compusyn program (ComboSyn, Inc., Paramus, N.J.) was used to calculate CI and generate isobologram.
In these experiments, varying concentrations of the two reagents are added to tumor cells in an array format. Cytotoxicity was determined by CCK8 assay after 24 hours. […] An antagonistic effect (competition) would result in hyperbolic (bell-shaped) curve above the dotted line (additive effect).
Cells were allowed to attach for 24 hours after which they were pretreated with FAC 200 μM for 24 hours. […] After 24 hours, CCK-8 (10 μl) was added to each well and one hour later, absorbance at 450 nm was measured. Viability was calculated as percentage of the cells grown in complete medium (FIG. 4). […] Isobologram was generated using Compusyn program (ComboSyn, Inc., Paramus, N.J.). Dotted line is the predicted additive effect between two compounds. Values below the dotted line indicate synergy.

[7] = tested on: Lewis Lung Carcinoma (LLC) MATRIGEL plugs, tumor blood vessels (CD31)
Procedure: FIG. 11. […] Tumor cells were injected into groups of mice subcutaneously in […] plugs. […] Histograms show mean levels of blood vessel length and branch points.
In another aspect, this disclosure describes methods of inhibiting angiogenesis in a subject. Generally, the methods involve co-administering cell-permeable iron and an anti-angiogenic chemotherapeutic agent. […] (FIG. 7).
One million LLC cells (in PBS) were mixed with […] (Corning, Inc., Corning, N.Y.) in a 3:1 ratio and injected subcutaneously into the dorsal flanks (bilateral sites) of 6-8 week old female C57BL/6 wild-type mice. Experimental […] plugs contained 200 μM FAC. Four days later, mice were treated with either saline (negative control) or 20 mg/kg FAC (in PBS) on alternate days for two weeks. After two weeks, mice were sacrificed, tumor plugs removed and photographed, a part of the […] plugs was snap-frozen, and another part of the […] plugs was fixed in 10% neutral formalin. Frozen tumor plugs (n=5 for saline and n=7 for FAC) were sectioned (15 μm), fixed with acetone at −20° C. for 10 minutes, rehydrated, and blocked in 1% BSA. Slides were then stained with PE-conjugated anti-mouse CD31 (1:100) overnight at 4° C., washed three times with PBS, stained with FITC-conjugated anti-alpha-SMA (1:500) for one hour at room temperature and counterstained with DAPI. Two sections per tumor plug were stained. Random areas (5-20) were imaged at 10× magnification using a Nikon AZ 100M Fluorescence Macro scope and at 20× magnification using a Leica DM5500 B microscope. CD31 vessel length and branching points (nodes) were quantified by morphometric analyses of fluorescent digital images using Reindeer Games plug-in functions for Adobe Photoshop, as previously described (Wild et al., 2000, Microvac Res 59(3):368-376). CD31 positive vessels co-staining with alpha- SMA were quantified similarly to quantitate mature vessels. Data in FIG. 11 show representative images of tumor sections stained with rat anti-mouse CD31-phycoerythrin conjugate.

[8] = 20 mg/kg FAC on alternate days for two weeks

Compound: COc1cccc2c1C(=O)c1c(O)c3c(c(O)c1C2=O)C[C@@](O)(C(=O)CO)C[C@@H]3O[C@H]1C[C@H](N)[C@H](O)[C@H](C)O1 [DOX, Doxorubicin, reference compound]
- Dose DOX (DOX alone for this Fa) ([1]; Fa 0.88386): 47050.0
- Dose DOX (DOX alone for this Fa) ([1]; Fa 0.95196): 178095.

Compound: N.N.O=C([O-])C1(C(=O)[O-])CCC1.[Pt+2] [carboplatin, reference compound]
- IC50 [2]: 150 µM

Compound: ferric ammonium citrate [FAC]
- colony formation (clonogenic growth) [3]: completely inhibited
- Dose FAC (FAC alone for this Fa) ([1]; Fa 0.88386): 2644.47
- Dose FAC (FAC alone for this Fa) ([1]; Fa 0.95196): 6060.28
- cell viability [4]: significant decrease in cell viability
- inhibition of lymphoma cell growth (Burkitt's lymphoma cells): effective
- potency relative to ferric citrate at inhibiting lymphoma cell growth (Burkitt's lymphoma cells): more potent than ferric citrate (FC)
- IC50 [2]: 200 µM
- endothelial cell migration (electrical impedance, real time) (HUVECs): inhibits
- inhibition of VEGF-A-induced cell proliferation ([5]; 50 μM FAC, 48 hours): complete inhibition
- inhibition of VEGF-A-induced endothelial cell proliferation ([5]; 200 μM FAC, 24 hours): completely inhibited
- Dose FAC (FAC alone for this Fa) ([6]; Fa 0.24288): 121.297
- Dose FAC (FAC alone for this Fa) ([6]; Fa 0.24359): 121.991
- Dose FAC (FAC alone for this Fa) ([6]; Fa 0.28253): 164.074
- Dose FAC (FAC alone for this Fa) ([6]; Fa 0.29392): 178.068
- Dose FAC (FAC alone for this Fa) ([6]; Fa 0.35541): 269.444
- Dose FAC (FAC alone for this Fa) ([6]; Fa 0.36087): 279.043
- Dose FAC (FAC alone for this Fa) ([6]; Fa 0.49929): 645.092
- Dose FAC (FAC alone for this Fa) ([6]; Fa 0.61254): 1272.12
- Dose FAC (FAC alone for this Fa) ([6]; Fa 0.66880): 1824.65
- Dose FAC (FAC alone for this Fa) ([6]; Fa 0.87322): 11126.4
- total vessel length [7, 8]: inhibited
- vessel branches [7, 8]: inhibited
- CD31 positive vessel density ([7]; systemic injection of FAC, compared to mice receiving saline): significantly reduced

Compound: ferric citrate [FC]
- inhibition of lymphoma cell growth (Burkitt's lymphoma cells): effective
